# Laboratory results: ChEMBL document CHEMBL4699511, “Cedrol, a Sesquiterpene Alcohol, Enhances the Anticancer Efficacy of Temozolomide in Attenuating Drug Resistance via Regulation of the DNA Damage Response and MGMT Expression” (J Nat Prod, 2020)
# Active and inactive are the calls of the source. No cut-off for these calls is given here.
# Assays:
# RG2 [1] = assay: Induction of cell cycle arrest in rat RG2 cells assessed as CyclinA expression at 112.4 uM after 48 hrs in presence of TMZ by Western blot analysis (reference value: 1); assay type: functional
# RG2 [2] = assay: Cytotoxicity against rat RG2 cells assessed as reduction in cell viability after 72 hrs by MTT assay; assay type: functional, cell-based; details: for IC50: RG2, 72 h
# RG2 [3] = assay: Cytotoxicity against rat RG2 cells assessed as reduction in cell viability after 48 hrs by MTT assay; assay type: functional, cell-based; details: for IC50: RG2, 48 h
# [4] = target: Serine/threonine-protein kinase AKT (Homo sapiens) (UniProt P31751+Q9Y243+P31749); assay: Inhibition of AKT phosphorylation at S473 residues in human DBTRG-05MG cells at 112.4uM after 48 hrs by Western blot analysis; assay type: cell-based
# DBTRG-05MG [5] = assay: Induction of DNA damage in human DBTRG-05MG cells assessed as Chk2 phosphorylation at Thr68 residues at 112.4 uM after 48 hrs in presence of TMZ by Western blot analysis (reference value: 1); assay type: functional
# DBTRG-05MG [6] = assay: Synergistic cytotoxicity against human DBTRG-05MG cells assessed as synergistic effect index at 134.9 uM after 48 hrs in presence of 309 uM TMZ by MTT assay; assay type: functional
# [7] = Cytotoxicity against rat CTX TNA2 cells assessed as reduction in cell viability after 72 hrs by MTT assay; assay type: cell-based; details: CTX TNA2, 72 h
# RG2 [8] = assay: Synergistic cytotoxicity against rat RG2 cells assessed as synergistic effect index at 112.4 uM after 48 hrs in presence of 309 uM TMZ by MTT assay; assay type: functional
# RG2 [9] = assay: Synergistic cytotoxicity against rat RG2 cells assessed as combination index at 89.9 uM after 48 hrs in presence of 515.1 uM TMZ by MTT assay; assay type: functional
# DBTRG-05MG [10] = assay: Induction of cell cycle arrest in human DBTRG-05MG cells assessed as p53 expression at 112.4 uM after 48 hrs in presence of TMZ by Western blot analysis (reference value: 1); assay type: functional
# DBTRG-05MG [11] = assay: Cytotoxicity against human DBTRG-05MG cells assessed as reduction in cell viability after 72 hrs by MTT assay; assay type: functional, cell-based
# RG2 [12] = assay: Induction of cell cycle arrest in rat RG2 cells assessed as CDK4 expression at 112.4 uM after 48 hrs by Western blot analysis (reference value: 1); assay type: functional
# RG2 [13] = assay: Cytotoxicity against rat RG2 cells assessed as reduction in cell viability after 24 hrs by MTT assay; assay type: functional, cell-based; details: for IC50: RG2, 24 h
# DBTRG-05MG [14] = assay: Induction of cell cycle arrest in human DBTRG-05MG cells assessed as p21 expression at 112.4 uM after 48 hrs by Western blot analysis (reference value: 1); assay type: functional
# [15] = Effect on AKT expression in human DBTRG-05MG cells at 112.4uM after 48 hrs in presence of TMZ by Western blot analysis (reference value: 1); assay type: functional
# DBTRG-05MG [16] = assay: Induction of apoptosis in human DBTRG-05MG cells assessed as cleaved caspace-9 expression at 112.4 uM after 48 hrs in presence of TMZ by Western blot analysis (reference value: 1); assay type: functional
# [17] = Cytotoxicity against rat CTX TNA2 cells assessed as reduction in cell viability after 48 hrs by MTT assay; assay type: cell-based; details: CTX TNA2, 48 h
# [18] = Cytotoxicity against rat CTX TNA2 cells assessed as reduction in cell viability after 24 hrs by MTT assay; assay type: cell-based; details: CTX TNA2, 24 h
# DBTRG-05MG [19] = assay: Induction of cell cycle arrest in human DBTRG-05MG cells assessed as accumulation at G2/M phase at 112.4 uM after 12 hrs by propidium iodide staining based flow cytometric analysis (reference value: 30.08 +/- 0.1%); assay type: functional
# [20] = Inhibition of TMZ-induced drug resistance in human DBTRG-05MG cells assessed as CD133 expression at 112.4 uM after 48 hrs by Western blot analysis (reference value: 2.3); assay type: functional
# DBTRG-05MG [21] = assay: Induction of apoptosis in human DBTRG-05MG cells assessed as increase in DNA fragmentation at 112.4 uM after 48 hrs in presence of TMZ by TUNEL assay; assay type: functional, cell-based
# RG2 [22] = assay: Induction of apoptosis in rat RG2 cells assessed as cleaved caspace-3 expression at 112.4 uM after 48 hrs in presence of TMZ by Western blot analysis (reference value: 1); assay type: functional
# [23] = Effect on AKT expression in rat RG2 cells at 112.4uM after 48 hrs by Western blot analysis (reference value: 1); assay type: functional
# DBTRG-05MG [24] = assay: Cytotoxicity against human DBTRG-05MG cells assessed as reduction in cell viability after 48 hrs by MTT assay; assay type: functional, cell-based
# RG2 [25] = assay: Induction of cell cycle arrest in rat RG2 cells assessed as accumulation at G2/M phase at 112.4 uM after 48 hrs by propidium iodide staining based flow cytometric analysis (reference value: 20.04 +/- 0.55%); assay type: functional
# DBTRG-05MG [26] = assay: Synergistic cytotoxicity against human DBTRG-05MG cells assessed as combination index at 112.4 uM after 48 hrs in presence of 412.1 uM TMZ by MTT assay; assay type: functional
# DBTRG-05MG [27] = assay: Induction of cell cycle arrest in human DBTRG-05MG cells assessed as CDK4 expression at 112.4 uM after 48 hrs by Western blot analysis (reference value: 1); assay type: functional
# RG2 [28] = assay: Induction of cell cycle arrest in rat RG2 cells assessed as CyclinB1 expression at 112.4 uM after 48 hrs in presence of TMZ by Western blot analysis (reference value: 1); assay type: functional
# DBTRG-05MG [29] = assay: Cytotoxicity against human DBTRG-05MG cells assessed as reduction in cell viability after 24 hrs by MTT assay; assay type: functional, cell-based
# RG2 [30] = assay: Induction of apoptosis in rat RG2 cells assessed as phosphorylated caspace-9 expression at 112.4 uM after 48 hrs in presence of TMZ by Western blot analysis (reference value: 1); assay type: functional
# DBTRG-05MG [31] = assay: Synergistic cytotoxicity against human DBTRG-05MG cells assessed as synergistic effect index at 134.9 uM after 48 hrs in presence of 103 uM TMZ by MTT assay; assay type: functional
# DBTRG-05MG [32] = assay: Induction of cell cycle arrest in human DBTRG-05MG cells assessed as p21 expression at 112.4 uM after 48 hrs in presence of TMZ by Western blot analysis (reference value: 1); assay type: functional
# [33] = Effect on ERK expression in human DBTRG-05MG cells at 206 uM after 48 hrs by Western blot analysis (reference value: 1); assay type: functional
# [34] = Effect on p38 expression in rat RG2 cells at 206 uM after 48 hrs by Western blot analysis (reference value: 1); assay type: functional
# RG2 [35] = assay: Induction of cell cycle arrest in rat RG2 cells assessed as accumulation at G2/M phase at 206 uM after 24 hrs by propidium iodide staining based flow cytometric analysis (reference value: 20.04 +/- 0.55%); assay type: functional
# DBTRG-05MG [36] = assay: Induction of apoptosis in human DBTRG-05MG cells assessed as increase in apoptotic body formation at 206 uM after 48 hrs by TUNEL assay; assay type: functional, cell-based
# RG2 [37] = assay: Induction of apoptosis in rat RG2 cells assessed as phosphorylated PARP expression at 206 uM after 48 hrs by Western blot analysis (reference value: 1); assay type: functional
# Sequence of Serine/threonine-protein kinase AKT (Homo sapiens) (P31749 whole entry, looked up): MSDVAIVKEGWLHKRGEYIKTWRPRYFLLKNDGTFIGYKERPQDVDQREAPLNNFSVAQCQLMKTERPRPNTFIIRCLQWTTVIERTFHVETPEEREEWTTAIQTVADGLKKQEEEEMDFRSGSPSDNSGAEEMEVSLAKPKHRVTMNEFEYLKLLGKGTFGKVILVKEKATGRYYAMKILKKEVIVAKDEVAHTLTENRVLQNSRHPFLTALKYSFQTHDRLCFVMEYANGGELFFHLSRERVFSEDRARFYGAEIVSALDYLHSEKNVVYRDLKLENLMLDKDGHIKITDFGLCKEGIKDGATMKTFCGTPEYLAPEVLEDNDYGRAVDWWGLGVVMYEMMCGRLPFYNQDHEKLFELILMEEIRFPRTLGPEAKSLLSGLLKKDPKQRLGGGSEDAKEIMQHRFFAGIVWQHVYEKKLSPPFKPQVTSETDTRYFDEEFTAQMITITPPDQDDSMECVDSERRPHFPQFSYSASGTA
# Sequence of Serine/threonine-protein kinase AKT (Homo sapiens) (P31751 whole entry, looked up): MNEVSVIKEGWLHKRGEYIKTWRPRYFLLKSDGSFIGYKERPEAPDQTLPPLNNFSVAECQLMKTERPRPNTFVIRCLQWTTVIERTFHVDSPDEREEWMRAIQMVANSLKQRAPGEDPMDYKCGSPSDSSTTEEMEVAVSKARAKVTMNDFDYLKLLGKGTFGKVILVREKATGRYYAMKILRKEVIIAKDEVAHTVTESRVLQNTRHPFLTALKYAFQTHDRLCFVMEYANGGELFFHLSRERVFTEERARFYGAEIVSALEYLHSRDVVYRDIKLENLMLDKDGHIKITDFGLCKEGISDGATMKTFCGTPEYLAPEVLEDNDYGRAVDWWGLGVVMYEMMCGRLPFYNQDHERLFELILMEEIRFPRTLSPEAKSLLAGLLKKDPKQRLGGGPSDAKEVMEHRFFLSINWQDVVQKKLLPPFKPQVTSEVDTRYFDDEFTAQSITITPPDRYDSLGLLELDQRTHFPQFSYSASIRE
# Sequence of Serine/threonine-protein kinase AKT (Homo sapiens) (Q9Y243 whole entry, looked up): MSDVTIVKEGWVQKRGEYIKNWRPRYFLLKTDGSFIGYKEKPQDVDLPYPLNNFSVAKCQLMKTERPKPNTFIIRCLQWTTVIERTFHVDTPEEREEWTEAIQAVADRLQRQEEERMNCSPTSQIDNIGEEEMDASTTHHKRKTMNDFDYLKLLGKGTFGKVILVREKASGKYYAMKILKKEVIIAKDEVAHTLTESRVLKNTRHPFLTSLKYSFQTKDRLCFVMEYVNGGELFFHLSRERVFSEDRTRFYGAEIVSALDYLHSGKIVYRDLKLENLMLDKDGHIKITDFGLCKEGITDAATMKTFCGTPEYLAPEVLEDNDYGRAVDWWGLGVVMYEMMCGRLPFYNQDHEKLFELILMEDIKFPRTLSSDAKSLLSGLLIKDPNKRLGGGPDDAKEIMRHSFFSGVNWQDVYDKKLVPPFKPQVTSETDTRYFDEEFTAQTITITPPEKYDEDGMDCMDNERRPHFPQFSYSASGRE
smiles,measurement,setting,value
C[C@@H]1CC[C@H]2C(C)(C)[C@H]3C[C@@]12CC[C@@]3(C)O [CEDROL],fold change (FC),RG2 [1],0.7
same,Activity,RG2 [2],Dose-dependent effect
same,IC50,RG2 [2],89.2 µM
same,Activity,RG2 [3],Dose-dependent effect
same,IC50,RG2 [3],93.3 µM
same,fold change (FC),[4],0.8
same,fold change (FC),DBTRG-05MG [5],2.6
same,Activity_index,DBTRG-05MG [6],0.89
same,IC50,[7],255 µM
same,Activity_index,RG2 [8],0.85
same,CI,RG2 [9],1.38
same,fold change (FC),DBTRG-05MG [10],2.2
same,Activity,DBTRG-05MG [11],Dose-dependent effect
same,IC50,DBTRG-05MG [11],107 µM
same,fold change (FC),RG2 [12],0.8
same,Activity,RG2 [13],Dose-dependent effect
same,IC50,RG2 [13],107 µM
same,fold change (FC),DBTRG-05MG [14],1.1
same,fold change (FC),[15],0.6
same,fold change (FC),DBTRG-05MG [16],3.4
same,IC50,[17],280 µM
same,IC50,[18],238 µM
same,Activity,DBTRG-05MG [19],31.03%
same,fold change (FC),[20],1.5
same,Activity,DBTRG-05MG [21],Active
same,fold change (FC),RG2 [22],3.3
same,fold change (FC),[23],0.6
same,Activity,DBTRG-05MG [24],Dose-dependent effect
same,IC50,DBTRG-05MG [24],102 µM
same,Activity,RG2 [25],20.33%
same,CI,DBTRG-05MG [26],0.62
same,fold change (FC),DBTRG-05MG [27],1
same,fold change (FC),RG2 [28],0.7
same,Activity,DBTRG-05MG [29],Dose-dependent effect
same,IC50,DBTRG-05MG [29],119 µM
same,fold change (FC),RG2 [30],0.4
same,Activity_index,DBTRG-05MG [31],0.86
same,fold change (FC),DBTRG-05MG [32],2.7
Cn1nnc2c(C(N)=O)ncn2c1=O [TEMOZOLOMIDE],fold change (FC),[33],0.9
same,fold change (FC),[34],0.7
same,IC50,RG2 [2],107 µM
same,Activity,RG2 [35],31.81%
same,IC50,RG2 [3],348 µM
same,Activity,DBTRG-05MG [36],Active
same,fold change (FC),RG2 [37],0.4
same,IC50,[7],431 µM
same,IC50,DBTRG-05MG [11],119 µM
same,IC50,RG2 [13],962 µM
same,IC50,[17],487 µM
same,IC50,[18],666 µM
same,IC50,DBTRG-05MG [24],355 µM
same,IC50,DBTRG-05MG [29],974 µM
